Reference: patent US20120213805A1, “Amatoxin-Armed Tartget-Binding Moieties for the Treatment of Cancer” (priority 2009, published 2012)

Assays:
RNA-polymerase II = RNA-polymerase II (Homo sapiens, UniProt P24928); settings: not covalently bound; read-out: KD of complex between amanitin and RNA-polymerase II; cited from earlier work
BxPC-3 tumor xenografts = experiment: BxPC-3 xenograft mouse tumor model; type: in vivo, NOD/SCID mice
Description: (§1) Five- to six-week old immunodeficient NOD/SCID mice were used for all experiments. BxPC-3 pancreatic or PC-3 prostate tumor cells (5×10^6 in 100 pi PBS) were transplanted subcutaneously to the right flank of the mice. Ten days later, when BxPC-3 tumors reached a volume of 30-80 mm^3 and PC-3 tumors reached a volume of 40-190 mm^3, the treatment was initiated. Animals received either control huHEA125 mAb at a dose of 15 mg/kg or huHEA125-amanitin conjugate (huHEA125-Ama) at a dose of 50 μg/kg of amanitin. Antibody and conjugate were administered as a single intraperitoneal injection.
(§2) Tumor growth was monitored for 16 days after initiation of the treatment. Tumor size was measured externally every third day using a caliper. Tumor volume was calculated according to the formula: V=π/6*a*b*c, where a, b and c are diameters in three dimensions. Data are presented as a relative tumor size/volume increase from the time of antibody administration.

PC-3 tumor xenografts = experiment: PC-3 xenograft mouse tumor model; type: in vivo, NOD/SCID mice
Description: as §1, §2

[1] = target: T1, epithelial cell adhesion molecule (EpCAM) (human, UniProt P16422 24-314); experiment: binding to EpCAM-expressing cells; method not stated
T1 construct: whole, on cells; also called CD326; EpCAM antigen
T1 sequence (looked up): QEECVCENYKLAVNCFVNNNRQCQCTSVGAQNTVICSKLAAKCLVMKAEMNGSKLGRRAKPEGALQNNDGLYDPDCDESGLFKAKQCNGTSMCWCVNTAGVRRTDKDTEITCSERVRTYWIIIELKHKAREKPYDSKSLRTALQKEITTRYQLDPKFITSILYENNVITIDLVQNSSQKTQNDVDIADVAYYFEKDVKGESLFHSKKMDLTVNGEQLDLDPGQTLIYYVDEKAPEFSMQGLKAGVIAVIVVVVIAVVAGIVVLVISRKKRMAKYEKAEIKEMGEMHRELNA

[2] = 50 μg/kg of amanitin, single i.p. injection, BxPC-3
[3] = 50 μg/kg of amanitin, single i.p. injection, PC-3 tumor bearing mice

amanitin
Kd (RNA-polymerase II): 3 nM

huHEA125: chimeric anti-EpCAM antibody: mouse HEA125 variable domains with human kappa constant light chain and human IgG1 constant heavy chain
tumor volume increase (BxPC-3 tumor xenografts; 15 mg/kg single i.p. injection, day 16, BxPC-3, FIG. 9): approximately 880% | tumor volume increase (PC-3 tumor xenografts; 15 mg/kg single i.p. injection, day 10, PC-3, FIG. 10): approximately 550%

α-Amanitin-glutarate-huHEA125 [huHEA125-amanitin]
day from which tumor volume regressed dramatically (BxPC-3 tumor xenografts; [2]): 7 days | mice responding to treatment (BxPC-3 tumor xenografts; [2]): All mice responded to treatment | tumor growth (BxPC-3 tumor xenografts; [2]): strongly inhibited | body weight of the mice (BxPC-3 tumor xenografts; 50 μg/kg of amanitin, single i.p. injection, BxPC-3 tumor bearing mice): neither a decrease in body weight | mice with tumor completely eradicated (BxPC-3 tumor xenografts; 50 μg/kg of amanitin, single i.p. injection, day 16, BxPC-3): 50% | tolerability (BxPC-3 tumor xenografts; 50 μg/kg of amanitin, single intraperitoneal injection, BxPC-3 tumor bearing mice): well tolerated | tumor growth (PC-3 tumor xenografts; 50 μg/kg of amanitin, single i.p. injection, PC-3): strongly retarded | body weight of the mice (PC-3 tumor xenografts; [3]): No decrease in the body weight | tolerability (PC-3 tumor xenografts; [3]): well tolerated

B1: chimeric antibody huHEA125 (antibody, human IgG1, kappa, V domains shown)
VH: EVKLLESGGGLVQPGGSLKLSCAASGFDFSRFWMTWVRQAPGKGLEWIGEINLDSSTINYTPSLKDKFIISRDNAKNTLFLQMSKVRSEDTALYYCSRGISMDYWGQGTSVTVSS
VL: DILLTQSPAILSVSPGERVSFSCRASQSIGISLHWYQQRPSDSPRLLIKYASESISGIPSRFSGSGSGTDFTLSINSVESEDIADYYCQQSNIWPTTFGAGTKLELKR
notes: also called unmodified huHEA125 antibody; non-conjugated huHEA125 antibody
Kd [1]: 2.2 nM
